From US20120184586A1, “DESFERRITHIOCIN POLYETHER ANALOGUES AND USES THEREOF” (University of Florida Research Foundation, Inc., priority 2009, published 2012)
“And” between values parts separate entries of the source, which are not always exact repeats. Identical values can stand only once. “Also recorded” adds a separate entry of the source. Like-named read-outs stand apart in the source and are kept apart here. One block for each compound: values may come before it.

Key:
[1] = tested on: iron-overloaded Cebus apella primates; conditions: cited from earlier work
[2] = tested on: non-iron-overloaded, bile duct-cannulated rats; conditions: historical data, cited from earlier work
[3] = historical findings from references; cited from earlier work
[4] = 2:1 complex with Fe(III); cited from earlier work
[5] = trial abandoned by Genzyme; cited from earlier work
[6] = tested on: non-iron-overloaded, bile duct-cannulated rats; test: Chelator-induced iron clearance (ICE, biliary ferrokinetics) in non-iron-overloaded, bile duct-cannulated rodents; format: in vivo, rat (male Sprague-Dawley); conditions: for time of maximum iron clearance (MIC), biliary ferrokinetics / time until iron excretion is over / returned to baseline, biliary ferrokinetics / ICE (iron-clearing efficiency), rodents: bile duct-cannulated rats; for time of maximum iron clearance (MIC), biliary ferrokinetics / time until iron excretion is over / returned to baseline, biliary ferrokinetics: 300 μmol/kg PO; for ICE relative to parent ligand 2 (times) / ICE relative to trioxa polyether 4 (times): rodents, po 300 μmol/kg
[7] = tested on: iron-overloaded Cebus apella primates; test: Chelator-induced iron clearance (ICE) in iron-overloaded Cebus apella primates; format: in vivo; conditions: for performance ratio (PR), mean ICEprimates/ICErodents: current study; for ICE (iron-clearing efficiency), primates: iron-overloaded C. apella
[8] = tested on: rats; test: Tissue iron decorporation in rats after 10 days of oral dosing; format: in vivo, rat (male Sprague-Dawley)
[9] = Hydrolysis of ester 7 to acid 6 in Cebus apella monkey plasma; format: in vitro ADME; conditions: 37° C., solubilized in DMSO
Procedure: (§1) The profound difference between the ICE of the parent acid chelator 6 versus that of the ester 7 in rodents and primates is consistent with two possible explanations: 1) The ester is poorly absorbed from the gastrointestinal (GI) tract in the primates, or 2) The primate non-specific serum esterases simply may not cleave ester 7 to the active chelator acid 6. An experiment was performed using rat and monkey plasma in an attempt to determine if the relatively poor ICE of 7 in the primates was due to interspecies differences in hydrolysis. When 7 was solubilized in DMSO and incubated at 37° C. with rat plasma, all of the ester had been converted to the active acid 6 within 1-2 h. This was also the case when the experiment was carried out with plasma from Cebus apella monkeys. Thus, there is no difference in the hydrolysis of 7 between the rats and the primates. Therefore, the poor ICE of 7 in the monkeys is consistent with the idea that the ester is absorbed much more effectively from the GI tract of the rodents than from the GI tract of the primates. Control experiments were also performed in which saline was used in place of the rat or monkey plasma.
(§2) Plasma analytical methods. […] The chelator concentrations were calculated from the peak area fitted to calibration curves by non-weighted least-squares linear regression with Shimadzu CLASS-NP 7.4 Chromatography Software. […]

[10] = Octanol/water partition (log Papp), shake flask direct method, Tris buffer pH 7.4; conditions: from log Papp values
[11] = Control incubation of ester 7 in saline in place of plasma; format: physicochemical; conditions: solubilized in DMSO
Procedure: as §1
The ethyl ester (7) was solubilized in DMSO and further diluted with distilled water to provide a 100 μM solution. A 25 μL aliquot of the drug solution was added to centrifuge tubes containing 100 μL of rat or primate plasma. […]

[12] = Hydrolysis of ester 7 to acid 6 in rat plasma; format: in vitro ADME; conditions: 37° C., solubilized in DMSO
Procedure: as §1, §2

[13] = bile duct-cannulated rats, po 300 μmol/kg
[14] = po 75 μmol/kg by gavage as monosodium salt
[15] = 384 μmol/kg/day × 10 days po as sodium salt
[16] = 384 μmol/kg/day × 10 days po in capsules
[17] = 192 μmol/kg/d × 10 days po in capsules

SMILES: COCCOCCOCCOc1ccc(O)c(C2=NC(C)(C(=O)O)CS2)c1 (single isomer, unassigned) [5′-isomer of 4]
performance ratio (PR), mean ICEprimates/ICErodents ([1]; previously reported (ref 46)): 1
ICE (iron-clearing efficiency), primates ([1]; previously reported, dose not stated): 8.1±2.8%

SMILES: C[C@]1(C(=O)O)CSC(c2ncccc2O)=N1 [ligand 1, (S)-4,5-dihydro-2-(3-hydroxy-2-pyridinyl)-4-methyl-4-thiazolecarboxylic acid]
ICE (iron-clearing efficiency), primates ([1]; iron-overloaded C. apella, po 150 μmol/kg, historical data): 16%
ICE (iron-clearing efficiency), rodents ([2]; bile duct-cannulated rodent model, po 150 μmol/kg): 5.5%
nephrotoxicity [3]: severely nephrotoxic
log β2 [4]: 29.6

time of maximum iron clearance (MIC), biliary ferrokinetics [6]: 3 h
SMILES: C[C@]1(C(=O)O)CSC(c2ccc(O)cc2O)=N1 [ligand 2, (S)-2-(2,4-dihydroxyphenyl)-4,5-dihydro-4-methyl-4-thiazolecarboxylic acid]
clinical trial outcome [5]: abandoned by Genzyme because of renal toxicity
time until iron excretion is over / returned to baseline, biliary ferrokinetics [6]: 9 h
ICE (iron-clearing efficiency), rodents [2, 13]: 1.1±0.8%

SMILES: COc1ccc(C2=N[C@@](C)(C(=O)O)CS2)c(O)c1 [ligand 3, (S)-4,5-dihydro-2-(2-hydroxy-4-methoxyphenyl)-4-methyl-4-thiazolecarboxylic acid]
nephrotoxicity [3]: very nephrotoxic; also recorded: unacceptably nephrotoxic

time of maximum iron clearance (MIC), biliary ferrokinetics [6]: 3 h
SMILES: COCCOCCOCCOc1ccc(C2=N[C@@](C)(C(=O)O)CS2)c(O)c1 [ligand 4, (S)-4,5-dihydro-2-[2-hydroxy-4-(3,6,9-trioxadecyloxy)phenyl]-4-methyl-4-thiazolecarboxylic acid, reference compound]
time until iron excretion is over / returned to baseline, biliary ferrokinetics [6]: 12 h
ICE relative to parent ligand 2 (times) [6]: five times greater
ICE relative to longer analogue 5 (times) ([7]; primates): 2.5
ICE (iron-clearing efficiency), rodents [2, 13]: 5.5±1.9%
nephrotoxicity [3]: virtually absent of any nephrotoxicity

time of maximum iron clearance (MIC), biliary ferrokinetics [6]: 6 h
SMILES: COCCOCCOCCOCCOc1ccc(C2=N[C@@](C)(C(=O)O)CS2)c(O)c1 [ligand 5, (S)-4,5-dihydro-2-[2-hydroxy-4-(3,6,9,12-tetraoxamidecyloxy)phenyl]-4-methyl-4-thiazolecarboxylic acid]
time until iron excretion is over / returned to baseline, biliary ferrokinetics [6]: 24 h
ICE (iron-clearing efficiency), rodents ([6]; po 300 μmol/kg by gavage as monosodium salt): 12.0±1.5%
ICE relative to parent ligand 2 (times) [6]: ~11
ICE relative to trioxa polyether 4 (times) [6]: twice as effective
performance ratio (PR), mean ICEprimates/ICErodents [7]: 0.82
ICE (iron-clearing efficiency), primates [7, 14]: 9.8±1.9%

SMILES: COCCOCCOc1ccc(C2=N[C@@](C)(C(=O)O)CS2)c(O)c1 [ligand 6, (S)-4,5-dihydro-2-[2-hydroxy-4-(3,6-dioxaheptyloxy)phenyl]-4-methyl-4-thiazolecarboxylic acid]
ICE (iron-clearing efficiency), rodents ([6]; po 300 μmol/kg in capsules): > 26%
ICE (iron-clearing efficiency), rodents ([6]; po 300 μmol/kg in capsules, listed as 6): 26.7±4.7%
ICE relative to trioxa polyether 4 (times) [6]: nearly five times greater
performance ratio (PR), mean ICEprimates/ICErodents [7]: 1.0
ICE (iron-clearing efficiency), primates [7, 14]: 28.7±12.4%
ICE (iron-clearing efficiency), primates ([7]; po 75 μmol/kg in capsules): 26.3±9.9% and > 26%
decrease of cardiac iron vs untreated controls [8, 15]: 9.9%
reduction of liver iron vs untreated controls [8, 15]: > 35%
reduction of pancreatic iron vs untreated controls [8, 15]: significant reduction in pancreatic iron
reduction of renal iron content vs untreated controls [8, 15]: 24.8%
decrease of cardiac iron vs untreated controls [8, 16]: 6.9%
reduction of liver iron vs untreated controls [8, 16]: > 35%
reduction of pancreatic iron vs untreated controls [8, 16]: but not when it was dosed in capsules
reduction of renal iron content vs untreated controls [8, 16]: 7.4%

time for conversion of all of the ester to the active acid 6 [9]: 1 to 2 h
fold difference in partition ([10]; 7 vs 1): greater than 58.000 fold
times more lipophilic than the parent 2 ([10]; 7 vs 2): 11,220
time for conversion of all of the ester to the active acid 6 [12]: 1 to 2 h
SMILES: CCOC(=O)[C@@]1(C)CSC(c2ccc(OCCOCCOC)cc2O)=N1 [ligand 7, ethyl (S)-4,5-dihydro-2-[2-hydroxy-4-(3,6-dioxaheptyloxy)phenyl]-4-methyl-4-thiazolecarboxylate]
ICE (iron-clearing efficiency), rodents ([6]; po 300 μmol/kg in capsules): 25.9±6.5%
ICE relative to parent ligand 2 (times) [6]: approximately 24
performance ratio (PR), mean ICEprimates/ICErodents [7]: 0.33
ICE (iron-clearing efficiency), primates ([7]; po 75 μmol/kg in capsules): 8.8±2.2%
ICE relative to acid 6 ([7]; primates): only one third
decrease of cardiac iron vs untreated controls [8, 17]: Neither dose was associated with a reduction
reduction of liver iron vs untreated controls [8, 17]: 27%
reduction of pancreatic iron vs untreated controls [8, 17]: Neither dose was associated with a reduction
reduction of renal iron content vs untreated controls [8, 17]: 12.6%
decrease of cardiac iron vs untreated controls [8, 16]: Neither dose was associated with a reduction
reduction of liver iron vs untreated controls [8, 16]: 59.1%
reduction of pancreatic iron vs untreated controls [8, 16]: Neither dose was associated with a reduction
reduction of renal iron content vs untreated controls [8, 16]: 32.1%
stability of the ester in saline [11]: all of the drug remained in the form of the ester
